This is an account of results in article PMC12442099 (ACS Infectious Diseases, 2025).

The structures appear in SMILES notation. Converted amounts (≈) assume the structure as drawn. Some results are limits rather than exact numbers.

The subject of one assay is E. coli TOP10F'. Put plainly: Growth inhibition after 7 hours (EC80/EC50). The following applies: Escherichia coli, 7 h; for EC50: read-out: EC50 TOP10F'; for IC80: read-out: EC80 TOP10F'.
The subject of another assay is E. coli TOP10F’. As to the kind of experiment: MIC broth microdilution. Particulars: Escherichia coli; screening strain; CAMHB, median of triplicates; read-out: MIC (μg/mL) E. coli TOP10F’. The assay is classed as cell-based. On the procedure:
(§1) The antibacterial activity of the compounds was determined by measuring their minimum inhibitory concentration (MIC) values using the broth microdilution method according to the Clinical and Laboratory Standards Institute guidelines (CLSI). Briefly, a single colony from blood agar plates was inoculated into cation-adjusted Mueller-Hinton broth (CAMHB) and grown to OD600 = 0.5. Next, 10^6 CFU/mL were added to a 2-fold serial dilution series of test compounds and incubated at 37 °C, 600 rpm overnight (18–20 h for Gram-negative strains, 20–24 h for Gram-positive strains), after which the plates were visually inspected for bacterial growth. MICs are reported as the median of triplicates.

Another assay deals with K. pneumoniae 13883. As to the kind of experiment: MIC broth microdilution. The assay is classed as cell-based. Particulars: Klebsiella pneumoniae, clinical isolate, CAMHB, median of triplicates, read-out: MIC (μg/mL) K. pneumoniae 13883. How it is done:
as §1
(Broth dilution looks for growth in wells or tubes with falling amounts of substance.)

For another assay, the system named is S. aureus USA 300. Put plainly: MIC broth microdilution. The class given is cell-based. The following applies: Staphylococcus aureus, USA300; clinical isolate; CAMHB, median of triplicates; read-out: MIC (μg/mL) S. aureus USA 300. How it is done: as §1
In another assay the test system is E. coli BW25113. Put plainly: MIC broth microdilution. The assay is classed as cell-based. The following applies: Escherichia coli, CAMHB, median of triplicates, read-out: MIC (μg/mL) E. coli BW25113. On the procedure:
as §1

The subject of the next assay is E. coli 25922. As to the kind of experiment: MIC broth microdilution. The assay is classed as cell-based. The following applies: Escherichia coli, CAMHB, median of triplicates, read-out: MIC (μg/mL) E. coli 25922. How it is done: as §1
The subject of the next assay is P. aeruginosa 27853. As to the kind of experiment: MIC broth microdilution. The assay is classed as cell-based. Particulars: Pseudomonas aeruginosa, clinical isolate, CAMHB, median of triplicates, read-out: MIC (μg/mL) P. aeruginosa 27853. How it is done: as §1
In a further assay the test system is A. baumanni 9955. As to the kind of experiment: MIC broth microdilution. The assay is classed as cell-based. The following applies: Acinetobacter baumannii, clinical isolate, CAMHB, median of triplicates, read-out: MIC (μg/mL) A. baumanni 9955. On the procedure: as §1
The test system of assay [1] is Rcs cell envelope stress response in Escherichia coli. Put plainly: Rcs stress reporter assay, HTS format, dose-response curves. Particulars: for Emax: read-out: Max. effect (%); for EC50: read-out: pEC50 (converted). The assay is classed as cell-based. How it is done: We adapted the reporter assay based on the Rcs stress system for HTS in a screening program at the ELF as the first bacterial phenotypic screen used in this setting. , The assay was performed in a 1536-well format using 25 μM PMBN as a reference (set at 100% effect).
The ELF screened their extensive and diverse library consisting of >500,000 small molecules at a concentration of 10 μM. The assay window (S/B) and Z’ values remained stable (2.0–15.2 and 0.50–0.90, respectively) throughout the screening campaign. The detailed standard screening procedure of the ELF is outlined elsewhere. An overview of the selection process of the screening campaign performed here is outlined in Figure . Initially, 340 compounds with an effect ≥20% of the reference compound PMBN were considered biologically active. Usually, up to 1% of the input library is selected for confirmatory, dose–response, orthogonal and deselection assays. Because the number of biological actives identified in this assay was well below the 1% limit, no orthogonal assays were performed. Instead, all compounds were reordered and tested as dilution series in the Rcs assay to generate dose–response curves (DRCs). Each compound’s pEC50 (−log of EC50, defined as the concentration (mol/L) at which 50% effect is achieved) was determined, and compounds with a pEC50 ≥ 4.7 were selected for further analysis. Next, the compounds were subjected to a mammalian cell-based cytotoxicity assay to exclude toxic compounds that may have a generic effect on membrane integrity. Compounds that reduced mammalian cell viability by 50% were considered cytotoxic. The qualified hit list (QHL) was then generated following triaging based on LC-MS analysis and pEC50 values.
Overnight cultures (ONCs) were prepared by inoculating 5 mL medium from glycerol stocks and incubating the culture for 16–18 h. ONCs were then diluted to an OD600 of 0.05 and grown until an OD600 of 0.3–0.4 was reached.
Assay robustness was confirmed by testing its sensitivity to assay-interfering agents, including colored, aggregating and fluorescent compounds. […] For HTS, bacteria were diluted 50x in prewarmed medium. Fifteen nL of assay compounds (10 μM), DMSO (0.25%), or the reference compound polymyxin B nonapeptide (PMBN) at 25 μM were added to 1536 well plates. Next, 6 μL culture aliquots were added to assay plates containing compounds. Plates were briefly centrifuged for 1 min at 150 x g. Plates were incubated at 37 °C with high humidity and fluorescence (Ex./Em. λ: 485/528 nm) was measured at T = 0 and T = 150 min using a ClarioStar plate reader (BMG Labtech). For data analysis, T = 0 values were subtracted from T = 150 values to calculate Z-score and % effect compared to the reference compound.
Dose–response curves of the 340 initial active compounds were determined following the preparation of serial dilutions (20 nM–20 μM; 7 points, √10). The % effect compared to the reference compound PMBN was calculated and plotted for each compound dilution. The resulting plots were used to calculate pEC50 (-log(EC50), with EC50 being determined as the concentration at which a 50% effect is observed).
Background: A reporter such as luciferase makes a cellular process visible.

Another assay has as its system E. coli MC4100. As to the kind of experiment: Growth inhibition after 7 hours (EC80/EC50). The following applies: Escherichia coli, MC4100, 7 h; for EC50: read-out: EC50 MC4100; for IC80: read-out: EC80 MC4100.
For assay [2], the system named is Rcs stress response in E. coli TOP10F’. As to the kind of experiment: Rcs stress kinetics reporter assay. The following applies: chloramphenicol 1 μg/mL, negative control. The class given is cell-based. How it is done:
Stress was measured in real-time during 10 h following compound treatment by normalizing the fluorescence intensity for growth as indicated by the optical density at 600 nm (OD600) of the culture.
3 Bacterial stress responses of different compound classes as shown in panel (A). (B) Rcs, (C) σE, (D) Cpx, and (E) heat shock. Graphs show fold change in fluorescence normalized for OD600 at EC80 compound concentrations over the course of 10h. Fold change values were determined by comparing OD600‑normalized fluorescence of compound-treated samples to DMSO treated samples. PMBN is used as a CE stress-inducing control at 25 μg/mL, which is the concentration used as a control during the screening campaign. Chloramphenicol at 1 μg/mL is used as a non-stress-inducing antibiotic control. Error bars indicate standard deviation of the average of triplicate samples from at least two independent experiments. (F) Overview of the different stress responses based on the compound class.
For lower throughput analysis under laboratory conditions, cultures grown to OD600 of 0.3–0.4 were diluted to a final concnetration of 0.05 OD600 units/mL in black, clear-bottom 96-well plates (Greiner Bio-One B.V.). Plates were incubated in a Biotek HTX or H1 plate reader (Agilent Technologies) at 37 °C with continuous shaking. Kinetic studies were performed by measuring OD600 and fluorescence (Ex./Em. Λ: 485/528 nm) every 20 min for 10h. For end point measurements, fluorescence was measured at T = 0 and once more at T = 150 min.

`Cc1cc(-c2c(F)cc3c(=O)c(C(=O)O)cn(CCF)c3c2F)cc(C)n1` [A1]: the EC50 was 0.016 µg/mL (≈ 0.0425 µM) in the assay on E. coli TOP10F', 955 nM in assay [1] and 0.5 µg/mL (≈ 1.33 µM) in the assay with E. coli MC4100. In addition, the IC80 with E. coli TOP10F' turned out to be 0.063 µg/mL (≈ 0.167 µM); in the assay with E. coli MC4100, 2 µg/mL (≈ 5.31 µM). Also, the MIC was < 0.03 µg/mL with E. coli TOP10F’; 1 µg/mL (≈ 2.66 µM) in the assay on K. pneumoniae 13883; 1 µg/mL (≈ 2.66 µM) in the assay with S. aureus USA 300; 0.25 µg/mL (≈ 0.664 µM) with E. coli BW25113; 0.5 µg/mL (≈ 1.33 µM) in the assay on E. coli 25922; 16 µg/mL (≈ 42.5 µM) in the assay on P. aeruginosa 27853. Moreover, the MIC in the assay on A. baumanni 9955 was 1 µg/mL (≈ 2.66 µM). In addition, the Emax in assay [1] worked out at 26.1%.
Consider `CCc1cc(-c2c(F)cc3c(=O)c(C(=O)O)cn4c3c2OC[C@@H]4C)cc(C)n1` [A3], for which the EC50 in the assay on E. coli TOP10F' was 0.0078 µg/mL (≈ 0.0204 µM); in [1], 191 nM; in the assay with E. coli MC4100, 0.25 µg/mL (≈ 0.654 µM). The IC80 is 0.031 µg/mL (≈ 0.0811 µM) in the assay with E. coli TOP10F' and 1 µg/mL (≈ 2.62 µM) with E. coli MC4100. Moreover, the MIC in the assay on E. coli TOP10F’ is < 0.03 µg/mL; with K. pneumoniae 13883, 1 µg/mL (≈ 2.62 µM); with S. aureus USA 300, 0.5 µg/mL (≈ 1.31 µM); in the assay with E. coli BW25113, 0.125 µg/mL (≈ 0.327 µM); in the assay with E. coli 25922, 0.125 µg/mL (≈ 0.327 µM); in the assay with P. aeruginosa 27853, 8 µg/mL (≈ 20.9 µM). Further, the MIC with A. baumanni 9955 worked out at 0.5 µg/mL (≈ 1.31 µM). The Emax in assay [1] was found to be 18.6%.
Take `CNn1cc(C(=O)O)c(=O)c2cc(F)c(N3CCN(C(C)C)CC3)cc21` [A4]: the EC50 in the assay with E. coli TOP10F' is 2 µg/mL (≈ 5.52 µM); in [1], 214 nM; in the assay with E. coli MC4100, 0.25 µg/mL (≈ 0.69 µM). Also, the IC80 in the assay with E. coli TOP10F' worked out at 4 µg/mL (≈ 11 µM); in the assay with E. coli MC4100, 1 µg/mL (≈ 2.76 µM). The MIC in the assay on E. coli TOP10F’ is 0.125 µg/mL (≈ 0.345 µM); in the assay with K. pneumoniae 13883 it was 0.5 µg/mL (≈ 1.38 µM); in the assay on S. aureus USA 300, 64 µg/mL (≈ 177 µM); in the assay with E. coli BW25113, 0.25 µg/mL (≈ 0.69 µM); in the assay with E. coli 25922 it was 0.25 µg/mL (≈ 0.69 µM); in the assay with P. aeruginosa 27853, 16 µg/mL (≈ 44.1 µM). In addition, the MIC in the assay with A. baumanni 9955 amounted to 2 µg/mL (≈ 5.52 µM). Moreover, in [1], the Emax was determined as 20.8%.
In the case of `COC1CN(CCn2c(=O)ccc3ncc(F)cc32)CCC1NCc1cc(F)c2c(c1)NC(=O)CO2` (centres unmarked) [B2], the EC50 is < 0.063 µg/mL in the assay with E. coli TOP10F', 631 nM in [1] and 2 µg/mL (≈ 4 µM) with E. coli MC4100. Besides, the IC80 in the assay with E. coli TOP10F' stood at 2 µg/mL (≈ 4 µM); with E. coli MC4100, 16 µg/mL (≈ 32 µM). For the same compound, the MIC worked out at 0.06 µg/mL (≈ 0.12 µM) in the assay on E. coli TOP10F’; 4 µg/mL (≈ 8.01 µM) in the assay with K. pneumoniae 13883; 0.25 µg/mL (≈ 0.5 µM) in the assay with S. aureus USA 300; 1 µg/mL (≈ 2 µM) in the assay with E. coli BW25113; 2 µg/mL (≈ 4 µM) in the assay on E. coli 25922; 8 µg/mL (≈ 16 µM) in the assay on P. aeruginosa 27853. Moreover, the MIC with A. baumanni 9955 is 1 µg/mL (≈ 2 µM). The Emax in assay [1] stood at 53.2%.
Turning to `Cc1ncc(CNC2CCN(CCn3c(=O)ccc4ncc(OCc5ccnn5C)cc43)CC2)cc1Cl` [B3], the EC50 in the assay with E. coli TOP10F' was 0.016 µg/mL (≈ 0.0306 µM); in assay [1], 5620 nM; with E. coli MC4100, 2 µg/mL (≈ 3.83 µM). Moreover, the IC80 is 1 µg/mL (≈ 1.92 µM) in the assay with E. coli TOP10F' and > 16 µg/mL in the assay on E. coli MC4100. In addition, the MIC was 2 µg/mL (≈ 3.83 µM) in the assay with E. coli TOP10F’; 64 µg/mL (≈ 123 µM) with K. pneumoniae 13883; 0.125 µg/mL (≈ 0.239 µM) in the assay with S. aureus USA 300; 16 µg/mL (≈ 30.6 µM) in the assay on E. coli BW25113; 16 µg/mL (≈ 30.6 µM) in the assay with E. coli 25922; > 64 µg/mL in the assay on P. aeruginosa 27853. Besides, the MIC in the assay with A. baumanni 9955 stood at 8 µg/mL (≈ 15.3 µM). For the same compound, in assay [1], the Emax is 37.9%.
`O=C(N[C@H](CO)[C@H](O)c1ccc([N+](=O)[O-])cc1)C(Cl)Cl` [Chloramphenicol]: the “induction of stress response systems (Rcs, σE, Cpx, heat shock)” value in assay [2] is “did not induce any of the stress response systems tested”.
Consider `CN(C)c1ccc(-c2nc(Cl)nc3cccnc23)cc1` [S2], for which, in assay [1], the Emax came out at 87.9% and the EC50 is 7760 nM.
